In patent publication US6656911B2, “Serine protease inhibitors” (Cortech, Inc., priority 1994, dated 2003):
Where two headings read alike, the source gives them in different places.

Tests used:
[1] = Blood level screening after oral dose; format: in vivo, Sprague-Dawley rats; details: rat, oral gavage 10 mg/kg; for concentration at 3 h / concentration at 1 h / concentration at 6 h: male, Sprague-Dawley, plasma; for concentration at 3 h: read-out: Plasma Levels (μM) 3 hr; for concentration at 1 h: read-out: Plasma Levels (μM) 1 hr; for concentration at 6 h: read-out: Plasma Levels (μM) 6 hr
Procedure: The inhibitors were dissolved or suspended in polyethylene glycol (PEG), PEG-400 or PEG:H2O:EtOH at a concentration of 10 mg/ml. Unfasted male Sprague-Dawley rats were given an oral dose of this solution by gavage. Rats received 10 mg inhibitor/kg body weight in a volume of 1 ml/kg. After 1,3 or 6 hr., the rats were killed with an overdose of urethane (2.5 g/kg; i.p.) and the blood collected in a heparinized tube via cardiac puncture. Red blood cells were separated from the plasma by centrifugation.
Depending on the inhibitor, one of four organics (ethyl acetate, toluene, isopropyl ether or methyl t-butyl ether) was used to extract the compound from the plasma. Inhibitor concentrations were measured by HPLC or LC/MS analysis.

[2] = test system: polymorphoneucleocyte (PMN); assay: Extracellular Matrix (ECM) degradation assay; format: cell-based; details: PMN's stimulated with opsonized zymosan, 4 hr at 37° C.; for ECM DATA % Inhibition 1 uM / inhibition at 1 µM: 1 uM inhibitor; for ECM DATA % Inhibition 5 uM / inhibition at 5 µM: 5 uM inhibitor
Procedure: Forty-eight well plates on which extracellular matrix had been established were supplied to Cortech by Dr. Simon's group at the State University of New York at Stony Brook. Briefly, the plates were prepared as follows: R22 rat heart smooth muscle cells were seeded into wells at 2.5×10^4 cells/cm. The cells were fed every 4 days with Eagle's Minimal Essential Media supplemented with fetal bovine serum, tryptose phosphate broth, cefotaxime and streptomycin. At confluence, daily supplements of 50 ug/ml ascorbic acid were added for 8 to 10 days during the synthesis of the ECM layer. [^35S]sulfate and [^3H]proline were also added to the culture media to incorporate radiolabel into the matrix. Cells were later lysed with 25 mM NH4OH. Plates were washed three times with water and once with phosphate-buffered saline containing 0.02% NaN3. Plates were stored at 4° C. until use.
Matrix degradation assays were performed as follows: 0.40 ml of Hanks balance salt solution (HBSS) containing 1 or 5 uM test inhibitor (final concentration; diluted from DMSO stock solution; <2% DMSO final concentration) was added to the wells. After 30 minutes, 50 ul of a polymorphoneucleocyte (PMN) suspension was added resulting in 5×10^5 cells/well. PMN's were stimulated with opsonized zymosan. Zymosan particles were washed and suspended in 0.5 ml human serum for 1 hr at 37° C., vortexing every 15 min. The particles were then washed three times with HBSS and added to wells at a ratio of 10 particles/PMN in a volume of 50 ul. After a 4 hr incubation at 37° C., a 100 ul aliquot of the supernatant was withdrawn for scintillation counting. Following removal of the remaining supernatant, the residual ECM was solubilized with 0.5 ml 2M NaOH. The amount of tritium in this solubilized ECM was accessed by scintillation. ECM degradation data are expressed as (soluble counts released/total ECM counts)—(basal counts released without PMN's/total ECM counts).

[3] = target: T1, human neutrophil elastase (HNE) (Homo sapiens, UniProt P08246); assay: HNE Ki of CE compounds, tested as described in WO 96/16080; format: biochemical
T1 sequence (P08246 30-267): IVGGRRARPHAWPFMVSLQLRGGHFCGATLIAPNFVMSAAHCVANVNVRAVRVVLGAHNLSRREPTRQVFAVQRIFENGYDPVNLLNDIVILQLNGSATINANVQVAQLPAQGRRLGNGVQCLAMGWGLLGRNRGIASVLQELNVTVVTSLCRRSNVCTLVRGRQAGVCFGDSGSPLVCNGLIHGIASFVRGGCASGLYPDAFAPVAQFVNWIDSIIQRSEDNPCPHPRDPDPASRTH

Compound	Plasma Levels (μM) 1 hr [1] [µM]	Plasma Levels (μM) 3 hr [1] [µM]	Plasma Levels (μM) 6 hr [1] [µM]	Ki ([3]; read-out: HNE Ki) [nM]	concentration at 3 h [1] [µM]	concentration at 1 h [1] [µM]	concentration at 6 h [1] [µM]	ECM DATA % Inhibition 1 uM [2] [%]	ECM DATA % Inhibition 5 uM [2] [%]	inhibition at 1 µM [2] [%]	inhibition at 5 µM [2] [%]	Ki ([3]; HNE Ki (nM)) [nM]
Cc1cccc(Cc2nnc(C(=O)[C@@H](NC(=O)CN3C(=O)NC4(Cc5ccccc5C4)C3=O)C(C)C)o2)c1 [CE2253, 4-Spiro-(2-indanyl)-2,5-imidazolidinedione-N-[1-(2-[5-(3-methylbenzyl)-1,3,4-oxadiazolyl]carbonyl)-2-(S)-methylpropyl]acetamide]				11	0.246	0.282	0.163			31.9	45.9	
Cc1cccc(Cc2nnc(C(=O)[C@@H](NC(=O)Cn3c(-c4ccc(F)cc4)ncc(N)c3=O)C(C)C)o2)c1 [CE2101, 2-[5-Amino-6-oxo-2-(4-fluorophenyl)-1,6-dihydro-1-pyrimidinyl]-N-[1-(2-[5(3-methylbenzyl)-1,3,4-oxadiazolyl]carbonyl)-2-(S)-methylpropyl]acetamide]					1.37	1.24	1.04			44.6	51.2	
Cc1cccc(Cc2nnc(C(=O)[C@@H](NC(=O)CN3C(=O)N[C@H](C(C)C)C3=O)C(C)C)o2)c1 [CE2174, 4-(R)-Isopropyl-2,5-imidazolidinedione-N-[1-(2-[5-(3-methylbenzyl)-1,3,4-oxadiazolyl]carbonyl)-2-(S)-methylpropyl]acetamide]	1.86	0.97		15.2				1.49	18.3			
Cc1cccc(Cc2nnc(C(=O)[C@@H](NC(=O)CN3C(=O)NC(C)(C)C3=O)C(C)C)o2)c1 [CE2239, 4,4-Dimethyl-2,5-imidazolidinedione-N-[1-(2-[5-(3-methylbenzyl)-1,3,4-oxadiazolyl]carbonyl)-2-(S)-methylpropyl]acetamide]	1.46	1.15	0.71	43				11.9	11.3			
Cc1cccc(Cc2nnc(C(=O)[C@@H](NC(=O)CN3C(=O)CN=C(c4ccccc4N(C)C)c4ccccc43)C(C)C)o2)c1 [CE2258, 2-Oxo-5-phenyl-1,4-(2′-dimethylaminobenzodiazepine)-N-[1-(2-[5-(3-methylbenzyl)-1,3,4-oxadiazolyl]carbonyl)-2-(S)-methylpropyl]acetamide]	1.624	1.5	1.212	3.7				42.9	38.1			
Cc1cccc(Cc2nnc(C(=O)[C@@H](NC(=O)CN3C(=O)CN=C(c4ccccn4)c4ccccc43)C(C)C)o2)c1 [CE2217, 2-Oxo-5-(2-pyridyl)-1,4-benzodiazepine-N-[1-(2-[5-(3-methylbenzyl)-1,3,4-oxadiazolyl]carbonyl)-2-(S)-methylpropyl]acetamide]					0.521	1.99				28.1	41.2	5.5
Cc1cccc(Cc2nnc(C(=O)[C@@H](NC(=O)CN3C(=O)N[C@H](Cc4c[nH]c5ccccc45)C3=O)C(C)C)o2)c1 [CE2243, 4-(R)-(3-Indolemethylene)-2,5-imidazolidinedione-N-[1-(2-[5-(3-methylbenzyl)-1,3,4-oxadiazolyl]carbonyl)-2-(S)-methylpropyl]acetamide]	2.801	2.104	1.598	11				48	54.9			
Cc1cccc(Cc2nnc(C(=O)[C@@H](NC(=O)[C@@H]3CCCN3C(=O)[C@@H](NC(=O)OCc3ccccc3)C(C)C)C(C)C)o2)c1 [CE2072, (Benzyloxycarbonyl)-L-valyl-N-[1-(2-[5-(3-methylbenzyl)-1,3,4-oxadiazolyl]carbonyl)-2-(S)-methylpropyl]-L-prolinamide]					0.115	0.277	0.061			64.8	74.5	

Now from value to compound, other results behind:

Plasma Levels (μM) 1 hr [1] [µM]	Plasma Levels (μM) 3 hr [1] [µM]	Plasma Levels (μM) 6 hr [1] [µM]	Ki ([3]; read-out: HNE Ki) [nM]	concentration at 3 h [1] [µM]	concentration at 1 h [1] [µM]	concentration at 6 h [1] [µM]	Compound	ECM DATA % Inhibition 1 uM [2] [%]	ECM DATA % Inhibition 5 uM [2] [%]	inhibition at 1 µM [2] [%]	inhibition at 5 µM [2] [%]	Ki ([3]; HNE Ki (nM)) [nM]
0.77	0.47	0.25	4.1				Cc1cccc(Cc2nnc(C(=O)[C@@H](NC(=O)CN3C(=O)NC(C)(c4ccccn4)C3=O)C(C)C)o2)c1 (stereo partly drawn) [CE2216, [4-(R,S)-(2-Pyridyl)-4-(R,S)-methyl]-2,5-imidazolidinedione-N-[1-(2-[5-(3-methylbenzyl)-1,3,4-oxadiazolyl]carbonyl)-2-(S)-methylpropyl]acetamide]	32.1	37.15			
			8.2	0.57			Cc1cccc(Cc2nnc(C(=O)C(NC(=O)CN3C(=O)C(Cc4ccccc4)N(CCN4CCOCC4)C3=O)C(C)C)o2)c1 [CE2184, 1-(N-Morpholinoethyl)-5-(S)-benzyl-2,4-imidazolidinedione-N-[1-(2-[5-(3-methylbenzyl)-1,3,4-oxadiazolyl]carbonyl)-2-(R,S)-methylpropyl]acetamide]			30.5	32.4	
1.751	1.575	2.316	2.4				2-[(4-Fluorophenyl)-1,6-dihydro-1-pyrimidinyl]-N-[1-(2-[5-(3-methylbenzyl)-1,3,4-oxadiazolyl]carbonyl)-2-(S)-methylpropyl]acetamide [CE2254]	57.2	58.4			
0.597	0.846	0.502	3.3				CC(C)[C@H](NC(=O)CN1C(=O)NC(c2ccccc2)(c2ccccc2)C1=O)C(=O)c1nnc(Cc2ccc3c(c2)OCO3)o1 [CE2259, 4,4-Diphenyl-2,5-imidazolidinedione-N-[1-(2-[5-(3,4-methylenedioxybenzyl)-1,3,4-oxadiazolyl]carbonyl)-2-(S)-methylpropyl]acetamide]	43	59.6			
			2.1	0.162			Cc1cccc(Cc2nnc(C(=O)C(NC(=O)C3Cc4cccc5c4N3C(=O)C(N)CC5)C(C)C)o2)c1 [CE2130, (2S,5S)-5-Amino-1,2,4,5,6,7-hexahydroazepino-[3,2,1]-indole-4-one-carbonyl-N-[1-(2-[5-(3-methylbenzyl)-1,3,4-oxadiazolyl]carbonyl)-(R,S)-2-methylpropyl]amide]			16.3	29	
			0.016	0.41	0.393	0	CC(C)[C@H](NC(=O)[C@@H]1CCCN1C(=O)[C@@H](NC(=O)OCc1ccccc1)C(C)C)C(=O)c1nnc(Cc2ccc3c(c2)OCO3)o1 [CE2177, (Benzyloxycarbonyl)-L-valyl-N-[1-(2-[5-(3,4-methylenedioxybenzyl)-1,3,4-oxadiazolyl]carbonyl)-2-(S)-methylpropyl]-L-prolinamide]			74.2	76.8	
			0.28	0	0	0	Cc1cccc(Cc2nnc(C(=O)C(NC(=O)CN3C(=O)NC(c4ccccc4)C3=O)C(C)C)o2)c1 [CE2149, 5-(R,S)-Phenyl-2,4-imidazolidinedione-N-[1-(2-[5-(3-methylbenzyl)-1,3,4-oxadiazolyl]carbonyl)-2-(S)-methylpropyl]acetamide]			51.3	55.9	
